Reference: patent publication US20250129070A1, “BIFUNCTIONAL ANDROGEN RECEPTOR COMPOUNDS” (priority 2023, published 2025)
pEC50: −log10 of the molar value.

What follows are molecules tested on AR / CBP ternary complex (assay: Ternary complex formation assay (sandwich ELISA, AR capture / CBP detection) in VCaP cell lysates). Details: 1.5 hours treatment, sandwich ELISA (AR capture, CBP or p300 detection).
Format: cell-based
Experimental: Preparation of Mouse Anti-AR Antibody Coated 96 Well Plates
Black MaxiSorp plates: coat with 50 μL of mouse 1/50 diluted AR antibody (Monoclonal Antibody (AR 441 from Thermo Fisher); diluted in phosphate buffered saline (PBS). Spin the liquid to the bottom of the wells, if necessary. Incubate overnight at 4° C. Next day, wash 3 times with 200 μL of TBST. Block with 200 μL of blocking buffer (5% BSA in TBST) at room temperature for 2 hours (BSA: A4503 or A2153 from Sigma). Wash plates 3 times with TBST. Plates are ready for lysates Preparation of dimerizer treated lysates
Culture cells in 96 wells at 50K VCaP cells/well for at least 3 days. Plate in 5% Omega charcoal stripped FBS in total volume of 200 uL. Treat with bifunctional for 1.5 hours by adding 1 μL of 200× stock in DMSO. Aspirate media/compound. Add and pipet-to-mix 70 μL of 1× AlphaLisa Lysis Buffer to each well (Perkin Elmer, AlphaLISA SureFire Ultra, diluted in water). Pipet up and down when adding lysis buffer to disrupt cells. Let lysis proceed for 30 min at 4° C.
Incubate for 1 hour at room temperature. Flick out the lysates. Wash 3 times with TBST. Add 75 μL of rabbit CBP or p300 antibody to each well (diluted 1:5000 in blocking buffer (5% BSA in TBST). CBP antibody: (D6C5) Rabbit mAb #7389; p300 antibody: (D8Z4E) Rabbit mAb #86377. Incubate overnight at 4° C. Wash 3 times with 300 uL TBST, each time on shaker for 5-10 min. Prepare goat anti-rabbit antibody conjugated to HRP (1/100K dilution in blocking buffer) Invitrogen Catalog number: 32260. Add 75 μL of HRP-conjugated goat anti-rabbit antibody. Incubate at room temperature for 1 hour. Flick out the HRP-antibody mixture. Wash 7-8 times with TBST, each time on shaker for 10 min. Later washes try to overflow the wells so that no residual HRP remains bound to the sides of the well. Prepare and add 75 uL/well of QuantaRed Enhance Chemifluorescent HRP Substrate solution. Immediately read fluorescence on BMG ClarioStar (ex: 570/em 585), and repeat the read in 5 minutes and 15 minutes.
With `CC(=O)N1CCc2c(c(N3CCCc4cc(-c5cnn(C)c5)c(C(F)F)cc43)nn2C2CCN(CC3C(C)CN(c4ncc(C(=O)NC5C(C)(C)C(Oc6ccc(C#N)c(C(F)(F)F)c6)C5(C)C)cn4)CC3C)CC2)C1` (centres unmarked) [Compound 463, 2-[4-[[4-[5-acetyl-3-[7-(difluoromethyl)-6-(1-methylpyrazol-4-yl)-3,4-dihydro-2H-quinolin-1-yl]-6,7-dihydro-4H-pyrazolo[4,3-c]pyridin-1-yl]-1-piperidyl]methyl]-3,5-dimethyl-1-piperidyl]-N-[3-[4-cyano-3-(trifluoromethyl)phenoxy]-2,2,4,4-tetramethyl-cyclobutyl]pyrimidine-5-carboxamide] the pEC50 was > 9.00. For `CC(=O)N1CCc2c(c(-c3cccc4cc(-c5ccc(COCC6CCN(c7ncc(C(=O)NC8C(C)(C)C(Oc9ccc(C#N)c(Cl)c9)C8(C)C)cn7)CC6)nc5)ncc34)nn2C2CCOCC2)C1` (centres unmarked) [Compound 143, 2-[4-[[5-[8-(5-acetyl-1-tetrahydropyran-4-yl-6,7-dihydro-4H-pyrazolo[4,3-c]pyridin-3-yl)-3-isoquinolyl]-2-pyridyl]methoxymethyl]-1-piperidyl]-N-[3-(3-chloro-4-cyano-phenoxy)-2,2,4,4-tetramethyl-cyclobutyl]pyrimidine-5-carboxamide], the pEC50 was > 9.00. For `CC(=O)N1CCc2c(c(N3CCCc4cc(-c5cnn(C)c5)c(C(F)F)cc43)nn2C2CCC3(CC2)CCN(c2ncc(C(=O)NC4C(C)(C)C(Oc5ccc(C#N)c(Cl)c5)C4(C)C)cn2)C3)C1` (centres unmarked) [Compound 408, 2-[8-[5-acetyl-3-[7-(difluoromethyl)-6-(1-methylpyrazol-4-yl)-3,4-dihydro-2H-quinolin-1-yl]-6,7-dihydro-4H-pyrazolo[4,3-c]pyridin-1-yl]-2-azaspiro[4.5]decan-2-yl]-N-[3-(3-chloro-4-cyano-phenoxy)-2,2,4,4-tetramethyl-cyclobutyl]pyrimidine-5-carboxamide], the pEC50 was < 7.00. `CC(=O)N1CCc2c(c(N3CCCc4cc(-c5cnn(C)c5)c(C(F)F)cc43)nn2C2CN(C(=O)C3CCN(c4ncc(C(=O)NC5C(C)(C)C(Oc6ccc(C#N)c(Cl)c6)C5(C)C)cn4)CC3)C2)C1` (centres unmarked) [Compound 119, 2-[4-[3-[5-acetyl-3-[7-(difluoromethyl)-6-(1-methylpyrazol-4-yl)-3,4-dihydro-2H-quinolin-1-yl]-6,7-dihydro-4H-pyrazolo[4,3-c]pyridin-1-yl]azetidine-1-carbonyl]-1-piperidyl]-N-[3-(3-chloro-4-cyano-phenoxy)-2,2,4,4-tetramethyl-cyclobutyl]pyrimidine-5-carboxamide] was tested, and the pEC50 was > 9.00. In the case of `CC(=O)N1CCc2c(c(N3CCCc4cc(-c5cnn(C)c5)c(C(F)F)cc43)nn2C2CCN(C3CCC4(C3)CN(c3ncc(C(=O)NC5C(C)(C)C(Oc6ccc(C#N)c(Cl)c6)C5(C)C)cn3)C4)CC2)C1` (centres unmarked) [Compound 344, 2-[6-[4-[5-acetyl-3-[7-(difluoromethyl)-6-(1-methylpyrazol-4-yl)-3,4-dihydro-2H-quinolin-1-yl]-6,7-dihydro-4H-pyrazolo[4,3-c]pyridin-1-yl]-1-piperidyl]-2-azaspiro[3.4]octan-2-yl]-N-[3-(3-chloro-4-cyano-phenoxy)-2,2,4,4-tetramethyl-cyclobutyl]pyrimidine-5-carboxamide], the pEC50 was > 9.00. With `CC(=O)N1CCc2c(c(N3CCCc4cc(-c5cnn(C)c5)c(C(F)F)cc43)nn2C2CCN(C(=O)N3CCN(c4ncc(C(=O)NC5C(C)(C)C(Oc6ccc(C#N)c(Cl)c6)C5(C)C)cn4)CC3)CC2)C1` (centres unmarked) [Compound 112, 2-[4-[4-[5-acetyl-3-[7-(difluoromethyl)-6-(1-methylpyrazol-4-yl)-3,4-dihydro-2H-quinolin-1-yl]-6,7-dihydro-4H-pyrazolo[4,3-c]pyridin-1-yl]piperidine-1-carbonyl]piperazin-1-yl]-N-[3-(3-chloro-4-cyano-phenoxy)-2,2,4,4-tetramethyl-cyclobutyl]pyrimidine-5-carboxamide] the pEC50 was > 9.00. `CC(=O)N1CCc2c(c(N3CCCc4cc(-c5cnn(C)c5)c(C(F)F)cc43)nn2C2CCN(C(=O)C3CN(c4ncc(C(=O)NC5C(C)(C)C(Oc6ccc(C#N)c(Cl)c6)C5(C)C)cn4)C3)CC2)C1` (centres unmarked) [Compound 118, 2-[3-[4-[5-acetyl-3-[7-(difluoromethyl)-6-(1-methylpyrazol-4-yl)-3,4-dihydro-2H-quinolin-1-yl]-6,7-dihydro-4H-pyrazolo[4,3-c]pyridin-1-yl]piperidine-1-carbonyl]azetidin-1-yl]-N-[3-(3-chloro-4-cyano-phenoxy)-2,2,4,4-tetramethyl-cyclobutyl]pyrimidine-5-carboxamide] was tested, and the pEC50 was < 7.00. For `CC(=O)N1CCc2c(c(N3CCCc4cc(-c5cnn(C)c5)c(C(F)F)cc43)nn2C2CCC(OC3CN(c4ncc(C(=O)NC5C(C)(C)C(Oc6ccc(C#N)c(Cl)c6)C5(C)C)cn4)C3)CC2)C1` (centres unmarked) [Compound 340, 2-[3-[4-[5-acetyl-3-[7-(difluoromethyl)-6-(1-methylpyrazol-4-yl)-3,4-dihydro-2H-quinolin-1-yl]-6,7-dihydro-4H-pyrazolo[4,3-c]pyridin-1-yl]cyclohexoxy]azetidin-1-yl]-N-[3-(3-chloro-4-cyano-phenoxy)-2,2,4,4-tetramethyl-cyclobutyl]pyrimidine-5-carboxamide], the pEC50 was > 9.00. For `CC(=O)N1CCc2c(c(N3CCCc4cc(-c5cnn(C)c5)c(C(F)F)cc43)nn2C2CCC(N(C)C3CCN(c4ncc(C(=O)NC5C(C)(C)C(Oc6ccc(C#N)c(Cl)c6)C5(C)C)cn4)CC3)CC2)C1` (centres unmarked) [Compound 282, 2-[4-[[4-[5-acetyl-3-[7-(difluoromethyl)-6-(1-methylpyrazol-4-yl)-3,4-dihydro-2H-quinolin-1-yl]-6,7-dihydro-4H-pyrazolo[4,3-c]pyridin-1-yl]cyclohexyl]-methyl-amino]-1-piperidyl]-N-[3-(3-chloro-4-cyano-phenoxy)-2,2,4,4-tetramethyl-cyclobutyl]pyrimidine-5-carboxamide], the pEC50 was > 9.00. In the case of `CC(=O)N1CCc2c(c(N3CCCc4cc(-c5cnn(C)c5)c(C(F)F)cc43)nn2CCOc2ncc(C(=O)NC3C(C)(C)C(Oc4ccc(C#N)c(Cl)c4)C3(C)C)cn2)C1` (centres unmarked) [Compound 46, 2-[2-[5-acetyl-3-[7-(difluoromethyl)-6-(1-methylpyrazol-4-yl)-3,4-dihydro-2H-quinolin-1-yl]-6,7-dihydro-4H-pyrazolo[4,3-c]pyridin-1-yl]ethoxy]-N-[3-(3-chloro-4-cyano-phenoxy)-2,2,4,4-tetramethyl-cyclobutyl]pyrimidine-5-carboxamide], the pEC50 was > 9.00. In the case of `CC(=O)N1CCc2c(c(N3CCCc4cc(-c5cnn(C)c5)c(C(F)F)cc43)nn2C2CCN(C3CC(C#Cc4ncc(C(=O)NC5C(C)(C)C(Oc6ccc(C#N)c(Cl)c6)C5(C)C)cn4)C3)CC2)C1` (centres unmarked) [Compound 295, 2-[2-[3-[4-[5-acetyl-3-[7-(difluoromethyl)-6-(1-methylpyrazol-4-yl)-3,4-dihydro-2H-quinolin-1-yl]-6,7-dihydro-4H-pyrazolo[4,3-c]pyridin-1-yl]-1-piperidyl]cyclobutyl]ethynyl]-N-[3-(3-chloro-4-cyano-phenoxy)-2,2,4,4-tetramethyl-cyclobutyl]pyrimidine-5-carboxamide], the pEC50 was > 9.00. In the case of `CC(=O)N1CCc2c(c(Nc3ccc(-c4cnn(C)c4)cc3F)nn2C2CCN(C3CCN(c4ncc(C(=O)NC5C(C)(C)C(Oc6ccc(C#N)c(Cl)c6)C5(C)C)cn4)CC3)C2)C1` (centres unmarked) [Compound 8, 2-[4-[3-[5-acetyl-3-[2-fluoro-4-(1-methylpyrazol-4-yl)anilino]-6,7-dihydro-4H-pyrazolo[4,3-c]pyridin-1-yl]pyrrolidin-1-yl]-1-piperidyl]-N-[3-(3-chloro-4-cyano-phenoxy)-2,2,4,4-tetramethyl-cyclobutyl]pyrimidine-5-carboxamide], the pEC50 was < 7.00. For `CC(=O)N1CCc2c(c(N3CCCc4cnccc43)nn2C2CCN(CC3CCN(c4ncc(C(=O)NC5C(C)(C)C(Oc6ccc(C#N)c(Cl)c6)C5(C)C)cn4)CC3)CC2)C1` (centres unmarked) [Compound 157, 2-[4-[[4-[5-acetyl-3-(3,4-dihydro-2H-1,6-naphthyridin-1-yl)-6,7-dihydro-4H-pyrazolo[4,3-c]pyridin-1-yl]-1-piperidyl]methyl]-1-piperidyl]-N-[3-(3-chloro-4-cyano-phenoxy)-2,2,4,4-tetramethyl-cyclobutyl]pyrimidine-5-carboxamide], the pEC50 was > 9.00. In the case of `COc1cc(OC2C(C)(C)C(NC(=O)c3ccc(OC4CCC(N5CCC(n6nc(N7CCCc8cc(-c9cnn(C)c9)c(C(F)F)cc87)c7c6CCN(C(C)=O)C7)CC5)CC4)cc3)C2(C)C)ccc1C#N` (centres unmarked) [Compound 381, 4-[4-[4-[5-acetyl-3-[7-(difluoromethyl)-6-(1-methylpyrazol-4-yl)-3,4-dihydro-2H-quinolin-1-yl]-6,7-dihydro-4H-pyrazolo[4,3-c]pyridin-1-yl]-1-piperidyl]cyclohexoxy]-N-[3-(4-cyano-3-methoxy-phenoxy)-2,2,4,4-tetramethyl-cyclobutyl]benzamide], the pEC50 was > 9.00.
